Here are results for four compounds from ChEMBL document CHEMBL5620392, “Spiroindole-containing compounds bearing phosphonate group of potential Mpro-SARS-CoV-2 inhibitory properties” (Eur J Med Chem, 2023).

A value given as a limit tells only on which side of the number the result lay.

The test system of data set [1] is SARS-CoV-2. Put plainly: Antiviral activity against SARS-CoV-2 infected in African green monkey Vero E6 cells. Type of data set: functional, organism-based. The settings on record: Severe acute respiratory syndrome coronavirus 2, Vero C1008.
The subject of data set [2] is SARS-CoV-2. The data set can be described thus: Antiviral activity against SARS-CoV-2 infected in African green monkey Vero E6 cells assessed as inhibition of viral infection. It counts as functional, organism-based. The settings on record: Severe acute respiratory syndrome coronavirus 2, Vero C1008.
Data set [3] is described as follows: Selectivity index, ratio of CC50 for African green monkey Vero E6 cells to IC50 for SARS-CoV-2 infected in African green monkey Vero E6 cells. It counts as toxicity. As to conditions: read-out: Selectivity Index.
Data set [4] in a line: Cytotoxicity against African green monkey Vero E6 cells assessed as reduction in cell viability. As to conditions: chlorocebus sabaeus. Type of data set: toxicity, cell-based, Vero C1008.

Consider `COc1cccc2[nH]c(C(=O)N[C@@H](CC(C)C)C(=O)N[C@@H](C[C@@H]3CCNC3=O)C(=O)CO)cc12` [PF-00835231], for which the EC50 in data set [1] was at most 0.23 µM.

As for `NC(=O)c1nc(F)cnc1O`, the IC50 in data set [2] was 1380 µM. For the same compound, in data set [3], the selectivity ratio turned out to be 3.8. Further, in data set [4], the CC50 amounted to 5260 µM.

Regarding `CCN(CCO)CCCC(C)Nc1ccnc2cc(Cl)ccc12` (stereo not drawn) [HYDROXYCHLOROQUINE], the IC50 in data set [2] came out at 36.9 µM. In addition, the selectivity ratio in data set [3] worked out at 9.7. Moreover, in data set [4], the CC50 amounted to 356 µM.

Regarding `CCN(CC)CCCC(C)Nc1ccnc2cc(Cl)ccc12` (stereo not drawn) [CHLOROQUINE], the IC50 in data set [2] is 25 µM.
